Reference: PMC5335257, “Promoting in vivo remyelination with small molecules: a neuroreparative pharmacological treatment for Multiple Sclerosis” (Scientific Reports, 2017)
pIC50: −log10 of the molar value. “Also recorded” adds a separate entry of the source.

Legend:
[1] = system: cerebellar slices demyelinated with LPC; assay: Ex vivo remyelination in cerebellar slice cultures demyelinated with LPC; assay type: cell-based, CD1 P7 mice; conditions: 5 μM, 3 days post lesion (3DPL)
Experimental: The protocol used was modified from previously described. CD1 P7 mice were decapitated, and their cerebella were dissected into ice-cold HBSS (Invitrogen). 300 μm sagittal slices of cerebellum were cut using a McIllwain tissue chopper, placed on Millicell-CM organotypic culture inserts (3 slices per insert; Millipore) in a medium containing HBSS:BME: horse serum (1:2:1, Invitrogen), 28 mM D (+) - glucose (Normapur), […] L-Glutamine (Invitrogen) and 100 U/mL penicillin, 0.1 mg/mL streptomycin and 0.25 μg/ml Amphotericin B antibiotic anti-mycotic solution (Sigma) and maintained at 5% CO2 and 37 °C. Medium was changed every two days, and after 7 days in culture, demyelination was induced by addition of 0.5 mg/ml LPC (Sigma) to the medium for 15 h. After that, slices were treated with fresh medium containing PDE7-GSK3 or GSK3 inhibitors (VP1.15, VP3.15 or TDZD8; 5 μM). Cultures were maintained for 1 or 3 days post lesion (DPL), and then fixed for 40 minutes and immunostained with anti-MBP antibodies (myelin basic protein –as a marker of myelin; 1:200; Serotec; Cat#MCA4095) and anti-neurofilament antibody (as a marker of axons; 1:200; Abcam; Cat#ab8135). Fluorescence images were taken on a confocal SP5 resonant scanner (Leica Microsystems) at 1μm intervals in white matter areas at x40 magnification. The photographs were merged and co-localisation of both markers was quantified with Image J software using the colocalization highlighter plugin. This measurement was related to the area occupied by axons (neurofilament staining) and normalized with control values showing the data as the mean normalized myelination index ± SEM. Quantification was made in at least three independent experiments.

[2] = system: spinal cord injury models; parameters: method as in PMID 21297958, PMID 23077723; conditions: spinal cord injury models (as well as EAE); cited from earlier work
PDE7 = system: PDE7; parameters: method as in PMID 24437940; conditions: read-out: PDE7 inhibition IC50; cited from earlier work
[3] = system: corpus callosum of LPC-injected mice; assay: In vivo remyelination, LPC demyelination model; parameters: species or system C57/BL6 male mice; conditions: 10 mg/kg i.p. from 9 dpi
Experimental: Anaesthetized 8 week old C57/BL6 male mice were injected with 2 μl of 1% LPC through a hole drilled in the skull at stereotactic coordinates 1.2 mm posterior, 0.5 mm lateral, 1.4 mm deep to the bregma over 4 minutes using a 30-gauge needle attached to a Hamilton syringe, driven by a KD Scientific Nano pump, for 4 minutes to reduce backflow as previously described. At 9 days post injection (dpi), the first intraperitoneal dose of PDE7-GSK3 inhibitors (VP1.15 or VP3.15; 10 mg/kg of animal) was injected using the same solution detailed above for the cuprizone model. Each inhibitor was injected into a group of 10 mice and another group of 10 mice was injected with the vehicle. Two days after, a second dose was injected (11 dpi) and 5 mice of each group were perfused at 14 dpi with 4% PFA and 2% glutaraldehyde (GTA) in phosphate buffer. The remaining 5 animals of each group received a third injection of inhibitors (15 dpi) and were perfused at 21 dpi. A control group of 3 non-lesioned and non-treated mice was used as control. Fixed brains were post-fixed in 1% GTA for 7 days and then coronally cut into 1 mm slices. The slices containing the injected areas were selected and the area of interest was cut and processed for electron microscopy into a resin (Araldite/TAAB 812 Resin Kit, TAAB) following manufacturer instructions.
In order to detect the injured areas for investigation, sagittal semi-thin sections (1 μm) were cut using an ultramicrotome (Leica) and stained with toluidine blue. Ultra-thin sections (60 nm thick) were cut and stained in uranyl acetate and lead citrate and the ultrastructure was analysed taking images with a GatanOrius CCD camera coupled to a transmission electronic microscope (Philips CM120). The percentage of myelinated fibres and the thickness of myelin sheaths were examined. The mean percentage of myelinated fibres was measured from 10 fields per animal. Grids were overlaid onto the images and all axons intersecting with the grid lines were counted as myelinated or not[83][84]. The thickness of myelin around myelinated fibres was expressed as a g-ratio (axon perimeter divided by myelinated fibre perimeter) using ImageJ by tracing around a minimum of 100 individual fibres per mouse, using a pen and electronic pad (Bamboo pad, Wacom). To select the fibres randomly, a grid composed by 8 μm[2] squares was overlaid onto the images and fibres in alternate squares were measured. Data were expressed as the mean ± SEM.

OPCs = system: OPCs; parameters: method as in PMID 23661015; conditions: cited from earlier work
GSK-3 = system: GSK-3; parameters: method as in PMID 24437940; conditions: read-out: GSK-3 inhibition IC50; cited from earlier work
[4] = system: corpus callosum of cuprizone-fed mice; assay: In vivo remyelination, cuprizone demyelination model; parameters: species or system C57/BL6 male mice
Experimental: The protocol used was modified from previously described. Demyelination was induced by feeding 8 weeks old male C57/BL6 mice ad libitum with 0.2% cuprizone (bis-cyclo-hexanone-oxaldihydrazone; Sigma) mixed with milled chow (Altromin) for 5 weeks. A control group was maintained in the same conditions but fed with the chow without cuprizone. After cuprizone withdrawal, mice were intraperitoneally injected on 3 alternate days with PDE7-GSK3 inhibitors (VP1.15 or VP3.15; 10 mg/kg of animal) using a solution of the compound (100 mg/mL in DMSO) diluted 1:50 in a solution of 5% Tocrisolve (Tocris, UK) in distilledwater[36] or with the vehicle. 1 week after the cuprizone withdrawal, mice were transcardially perfused with 4% PFA in phosphate buffer. Another group was maintained for 3 weeks after cuprizone withdrawal and injected with 3 doses per week on alternate days of the PDE7-GSK3 inhibitors (10 mg/kg of animal per dose see above) or the vehicle and then perfused. The corpus callosum of three animals per condition was studied. For histological examination, forebrain coronal sections (20 μm) were taken of the rostral part of the corpus callosum as previously described[80][81] and stained with eriochrome cyanine using a standard protocol in order to study the myelin. Briefly, cryosections on glass slides were immersed in acetone for 5 minutes, dried and submerged in eriochrome cyanine solution (Sigma) for 1 hour and then differentiated in 5% (w/v) iron alum for 5–10 minutes, followed by a second differentiation with borax-ferricyanide solution for 5 minutes. The stained area was measured with the Image J software and related to the total analyzed area. For the immunofluorescence analysis, tissue sections were stained with anti-MBP (1:200; Serotec; Cat#MCA4095) for myelin, anti-PDGFRα (1:200; Santa Cruz; Cat#sc338) for OPCs, anti-CC1 (1:100; Calbiochem, Cat#OP80) and anti-GFAP (Glial fibrillary acidic protein; 1:200; Dako; Cat#Z0334) for astrocytes, and tomato lectin (TL; 1:67; Sigma; Cat#L0651) for microglia. Optical images were acquired using an Olympus BX61 microscope and fluorescence images were taken using a DFC480 FX digital camera (Leica) coupled to a Leica DM5000 B microscope or a confocal SP5 resonant scanner (Leica). Myelin staining (with MBP and eriochrome cyanine) and CC1 staining were quantified by taking pictures of non-overlapping fields of coronal sections of the corpus callosum, between the lateral ventricles (2 fields per section, 5–6 sections of each mice; using a x20 objective) and by measuring the fluorescence intensity or blue staining using the Image J software. The number of OPCs per field was also counted in pictures of the midline of the corpus callosum using the x40 objective (4–6 sections per mice). Astrocytes and microglia were evaluated in pictures of the same area of the corpus callosum using the x40 objective and quantified by measuring the area occupied by GFAP or TL staining respectively using the Image J software (4–6 sections per mice). Data were expressed as the mean ± SEM.

[5] = parameters: method as in PMID 23077723, PMID 25264825; conditions: cited from earlier work

OCC/N=c1/nc(-c2ccccc2)n(-c2ccccc2)s1 [VP1.15]
remyelination (normalized myelination index) [1]: increased
immunomodulatory effect [2]: immunomodulatory effect
pIC50 (PDE7): 5.96
thickness of myelin sheaths (G-ratio) vs untreated demyelinated control [3]: increased the thickness
percentage of myelinated callosal fibers vs vehicle ([3]; analysed at 14 or 21 dpi): increase
OPC differentiation (and survival) in vitro (OPCs): enhance OPC differentiation and survival
pIC50 (GSK-3): 5.71
myelin staining (eriochrome cyanine) in corpus callosum vs vehicle ([4]; 10 mg/kg i.p. on 3 alternate days, 1 week after cuprizone withdrawal): significantly higher myelin staining; also recorded: almost complete remyelination
myelin quantification by MBP immunodetection ([4]; 10 mg/kg i.p., after cuprizone withdrawal): confirmed these results, with similar effects
microglial activation (TL staining) vs vehicle ([4]; 1 week after cuprizone withdrawal): Neither VP1.15 nor VP3.15 induced changes
number of OPCs (PDGFRα+ cells) vs vehicle ([4]; one week after cuprizone withdrawal): significantly lower number of OPCs
emetic side effects [5]: without emetic side effects
